6 substances from patent US20080234183A1, “Cell Penetrating Peptides” (priority 2002, published 2008) can be followed below.

In data set [1] the test system is N2A mouse neuroblastoma cells. The data set can be described thus: Cellular internalisation assay of fluorescein-labelled APP and PS peptides. Format: cell-based. As to conditions: 10 μM, 37°. The protocol:
Mouse neuroblastoma cells, N2A, were cultivated in Dulbecco's minimal essential medium with Glutamax-I, supplemented with 10% (v/v) fetal bovine serum, penicillin (100 U/ml) and streptomycin (100 μg/ml).
The cells used for Internalisation were seeded out on round glass coverslips in 24well plates. One day post seeding, the cells were semi confluent, and the medium was changed to serum-free medium. The fluorescein-labelled peptides were added, with a final concentration of 10 μM. After 60 min of incubation at 37°, the cells were washed 3 times with 1 ml of Hepes-Krebbs-Ringer-(HKR) buffer and fixed with 3% paraformaldehyde solution in phosphate-buffered saline solution (PBS) for 10 minutes. The cells were then washed 3 times with 1 ml of HKR-buffer, and the coverslips were mounted and sealed for microscopy studies.
The cell type used for the internalisation assays with the fluorescein'tagged peptides was N2A mouse neuroblastoma cells. This cell-line is commonly used in association with Alzheimer's disease studies, and serves as a good model cell-line for these internalisation assays where peptides derived from proteins involved in Alzheimer's disease were examined. These Internalisation assays were performed at 37° C., therefore the internalisation by endocytosis cannot be excluded.

The subject of data set [2] is N2A mouse neuroblastoma cells. Described as above. The data set is classed as cell-based.
Another data set has as its system Bowes and Caco-2. The data set can be described thus: PenMMP14 uptake in cells expressing MMP14. Format: cell-based, human. An excerpt:
FIG. 24. Another example of an Inactivated selCPP. PenMMP14 uptake in Bowes (A) and B)) and Caco-2 (C) and D)). The left column is uptake of fluorescein labelled peptide (A) and C)) and the […] with coumarine label (B) and D)).

Another data set concerns N2a cells. Briefly: Cellular internalisation of M630 conjugated to fluorescein. The data set is classed as cell-based. The following applies: 5 μM, 1 h, 37° C. The protocol:
FIG. 42. Cellular internalisation of M630 conjugated to fluorescein in N2a cells, visualised by confocal microscope. The cells were incubated for 1 h at 37° C. with a final peptide concentration of 5 μM.

The next data set concerns Porcine coronary artery. The data set can be described thus: Effect of M630 on porcine coronary artery. How it is done:
CGRP receptor loop iC4, sequence 391-405 ([…]) was synthesised and tested at blood vessels as described for the ATLAR loop previously.
Porcine coronary artery was contracted by using KCl. After relaxation of the artery by washing, 50 μM M630 was applied. Contraction started after approximately 10 min and reached maximum in 15 to 20 min after application. […] The effect was reproducible and always very clearly observed. The lag-period of 10 min could be the time needed for the penetration of M630 into the cells.

For data set [3], the system named is G-proteins from blood vessel membranes. Briefly: Rate of GTPγS binding to blood vessel membranes. Format: biochemical. The following applies: membranes from porcine left anterior descending coronary artery. The protocol: Frozen pieces of blood vessels were mechanically pulverized. Subsequently membranes were obtained according to the protocol of McKenzie (McKenzie, F. R. Signal Transduction (Milliqan, E., Ed.), Oxford University Press, Oxford, N.Y., Tokyo. (1992)) with minor modifications. Until used, they were kept frozen in the concentration of 1-2 mg protein/ml as determined by the method of Lowry (Lowry, O. H., Rosenbrough, N.Y., Farr, A. L. & Randall, R. J. J. Biol. Chem. 193, 265-275 (1951)). The same procedure (with the exception of pulverization of tissue) was used also for the preparation of membranes from Sf9 cells which overexpressed the G-proteins of different types; protein concentrations of these membrane preparations were between 0.2 and 0.4 mg/ml.
The binding to G-proteins from blood vessel membranes was followed as described by McKenzie (McKenzie, F. R. Signal Transduction (Milligan, E., Ed.), Oxford University Press, Oxford, N.Y., Tokyo. (1992)). Briefly, the membranes (final protein concentration in the assay mixture was 0.05 mg/ml) were incubated for 3 min in the absence and presence of peptides in different concentrations with 0.5 nM [^35S]GTPγS at 13° C. […] The remaining radioactivity contained in the filters was determined in the LKB 1214 Rackbeta liquid scintillation counter. Blank values were determined by replacing the membrane preparations with buffer.

Data set [4] deals with porcine left anterior descending coronary artery. Briefly: Blood vessel contraction measurement. The protocol:
(§1) Dissected porcine hearts (260-390 g) were transported from local slaughterhouse to the laboratory in ice-cold Krebs-Henseleit solution (119 mM NaCl, 23.8 mM NaHCO3, 3 mM KCl, 1.14 mM NaH2PO4, 1.63 mM CaCl2, and 16.5 mM glucose). Left anterior descending coronary artery and great cardiac vein were isolated. Part of each blood vessel was used immediately after Isolation for contraction assays while part of it was kept frozen in liquid nitrogen for the membrane preparation. In some experiments blood vessels in which endothelium was mechanically removed were used. The same procedure was used also for the preparation of human umbilical blood vessels; umbilical cords were obtained from Obstetric Clinic of Ljubljana Clinical Center, Slovenia.
(§2) The measurements were performed as already described (20). Rings (5 mm wide) of blood vessels were cut and mounted into 10 ml tissue chamber filled with Krebs-Henseleit solution (37° C.; pH=7.4) which was oxygenated with the mixture of ^95% O2 and 5% CO2. Initial tension of 50 mN was applied and after equilibration 30 mM KCl was added to obtain stable Isometric contraction. The presence of endothelium was verified with substance P. After washing out of KCl and substance P and after the equilibration of the system was restored, test peptide was added into the tissue chamber and blood vessel contraction was recorded.

Another data set relates to T1, YTA-2ps.
T1 sequence: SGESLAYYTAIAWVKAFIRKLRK

The test system of another data set is human umbilical artery. The data set can be described thus: Blood vessel contraction measurement. How it is done:
as §1, §2

Another data set concerns the target T2, G11 (Homo sapiens, UniProt P29992).
T2 construct: made in house; host or cells: Sf9 insect cells (baculovirus); membranes used
T2 sequence (P29992 1-359): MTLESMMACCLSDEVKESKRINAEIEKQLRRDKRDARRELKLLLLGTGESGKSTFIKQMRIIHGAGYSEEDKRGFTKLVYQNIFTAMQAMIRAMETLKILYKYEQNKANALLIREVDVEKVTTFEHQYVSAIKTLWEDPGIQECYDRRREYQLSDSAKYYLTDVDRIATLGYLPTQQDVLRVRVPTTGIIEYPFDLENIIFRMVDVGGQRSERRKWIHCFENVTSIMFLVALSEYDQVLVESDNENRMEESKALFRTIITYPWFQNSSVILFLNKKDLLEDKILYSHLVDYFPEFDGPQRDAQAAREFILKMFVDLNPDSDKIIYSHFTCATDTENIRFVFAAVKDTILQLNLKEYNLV
Briefly: GTPase activity of Sf9 membranes overexpressing G-proteins. Format: biochemical. The following applies: 100 μM.

The target of another data set is T3, Gi (Bos taurus, UniProt P63097).
T3 construct: made in house; host or cells: Sf9 insect cells (baculovirus); membranes used
Described as above. The data set is classed as biochemical, bovine. As to conditions: 100 μM. An excerpt:
(§3) Baculovirus transfer vectors harboring the genes for Gsα, Giα1 and β1γ2 were kindly provided by Dr. Tatsuya Haga (University of Tokyo, Tokyo, Japan). The cDNA for bovine Gsα (21) in pVL1392, bovine Giα1 (22) In pVL1392 and bovine β1γ2 (23) in pVL1393 were cotransfected with linearized baculovirus DNA (Pharmingen, San Diego, Calif., USA), and the resulted virus stocks were subjected to one round of plaque purification before generation of high-titer virus stocks. In the expression procedure, Sf9 cells at density of 2 million cells/ml in suspension culture were Infected with a ratio 2:1 of a versus βγ. Cells were harvested 48 h post-infection, washed in PBS and stored at −70° C. until membrane preparation.
(§4) Frozen pieces of blood vessels were mechanically pulverized. […] Until used, they were kept frozen in the concentration of 1-2 mg protein/ml as determined by the method of Lowry (Lowry, O. H., Rosenbrough, N.Y., Farr, A. L. & Randall, R. J. J. Biol. Chem. 193, 265-275 (1951)). […]
(§5) Incubation medium was standard TE-buffer, pH 7.5. […] Blank values were determined by the replacement of membrane solution with assay buffer. […] The radioactivity of the yielding radioactive phosphate was determined in Packard 3255 liquid scintillation counter.

Another data set addresses T4, Gs (Bos taurus, UniProt P04896).
T4 construct: made in house; host or cells: Sf9 insect cells (baculovirus); membranes used
The description is as above. Format: biochemical, bovine. The following applies: 100 μM.
Source text: as §3, §4, §5

A further data set deals with great cardiac vein. The data set can be described thus: Blood vessel contraction measurement. Set-up: species or system porcine. How it is done:
as §1, §2

A further data set has as its target T5, Go (Homo sapiens, UniProt P09471).
T5 construct: made in house; host or cells: Sf9 insect cells (baculovirus); membranes used
The data set can be described thus: GTPase activity of Sf9 membranes overexpressing G-proteins. The following applies: 100 μM. The data set is classed as biochemical.

T4 sequence (P04896 whole entry): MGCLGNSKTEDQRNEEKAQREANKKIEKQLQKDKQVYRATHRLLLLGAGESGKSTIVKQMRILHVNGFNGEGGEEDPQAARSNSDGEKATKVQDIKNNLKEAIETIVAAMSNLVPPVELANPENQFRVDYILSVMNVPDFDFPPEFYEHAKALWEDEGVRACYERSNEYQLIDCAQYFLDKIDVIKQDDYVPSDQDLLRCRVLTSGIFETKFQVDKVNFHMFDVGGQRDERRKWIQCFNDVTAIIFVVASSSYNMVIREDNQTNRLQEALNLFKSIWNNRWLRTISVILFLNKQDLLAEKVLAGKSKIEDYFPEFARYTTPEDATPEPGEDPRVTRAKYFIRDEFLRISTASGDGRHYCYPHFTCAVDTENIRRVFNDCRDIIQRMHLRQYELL
T5 sequence (P09471 whole entry): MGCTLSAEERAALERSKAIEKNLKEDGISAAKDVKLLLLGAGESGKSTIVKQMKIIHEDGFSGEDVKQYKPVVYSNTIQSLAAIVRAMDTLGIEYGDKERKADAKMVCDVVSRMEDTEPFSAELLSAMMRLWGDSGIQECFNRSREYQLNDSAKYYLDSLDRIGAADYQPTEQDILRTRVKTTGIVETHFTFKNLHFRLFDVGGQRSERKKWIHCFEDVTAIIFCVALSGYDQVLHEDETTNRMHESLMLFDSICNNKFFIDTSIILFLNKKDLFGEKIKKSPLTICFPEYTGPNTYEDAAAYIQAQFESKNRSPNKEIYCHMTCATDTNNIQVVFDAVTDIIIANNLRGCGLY
T3 sequence (P63097 2-354 limits assumed): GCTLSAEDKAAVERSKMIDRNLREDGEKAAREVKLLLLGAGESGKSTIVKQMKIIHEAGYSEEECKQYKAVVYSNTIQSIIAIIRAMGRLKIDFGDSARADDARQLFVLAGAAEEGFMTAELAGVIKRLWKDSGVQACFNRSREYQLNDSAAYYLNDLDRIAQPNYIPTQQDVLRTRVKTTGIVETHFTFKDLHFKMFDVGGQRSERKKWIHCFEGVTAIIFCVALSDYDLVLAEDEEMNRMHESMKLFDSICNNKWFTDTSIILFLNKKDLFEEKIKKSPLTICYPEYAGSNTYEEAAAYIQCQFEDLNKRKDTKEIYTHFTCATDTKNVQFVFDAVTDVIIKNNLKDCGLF

Regarding KKKQYTSIHHGVVEVD [APP (725-740)], the cellular localisation entry in data set [1] is listed as “mostly to the cytosol”. Further, the cellular internalisation result in data set [1] (60 min) was “increased fluorescence compared to the background”. Also, in [2], the “internalisation at 4° C.” value is given as “not internalised”.

With “coum-DEEQERSEN-IRQIKIWFQNRRMKWK*K-amide [SelCPP2]”, in the data set on Bowes and Caco-2, the cellular uptake entry is on record as “taken up in cells expressing MMP14”.

As for VQAILRRNWNQYKIQ [Peptide M630], in the data set on N2a cells, the cell membrane penetration result was “penetrates cell membranes by a non-endocytotic mechanism”. The “effect on the contracted arteries” value with Porcine coronary artery is “no effect”. Moreover, in the data set on Porcine coronary artery (50 μM), the “reversal of contraction by washing” value was “Washing did not reverse the contraction” and the “time to start of contraction” value was “approximately 10 min”.

For KGKFQLYLKLKFKFL [Scrambled M511], the “rate of binding of GTPγS” value in data set [3] is given as “not active”. Also, the blood vessel contraction entry in [4] (16 μM) is recorded as “did not cause any contraction”.

Consider matrix metallo proteinase-2 (MMP-2), for which the “cleavage of the peptide by the protease, checked by mass spectrometry” value with YTA-2ps was “The correct cleavage of YTA-2 by MMP2 has also be confirmed by mass spectrometry (data not shown)”.

FLGKKFKKYFLQLLK [Peptide M511]: the “rate of binding of GTPγS” value in data set [3] was “dose-dependently increased”. For the same substance, in [4], the “termination of contraction by washing” value is “could not be terminated by washing”. In data set [4] (16 μM), the blood vessel contraction entry is “intense and long-lasting contraction”. Moreover, in data set [4] (16 μM, comparable to 30 mM K+), the “strength of contraction as % of maximal effect of potassium ion” value is “approximately 50%”. Besides, the “contraction force higher than that induced by 30 mM KCl” value in data set [4] (100 mM M511 (so in the source)) is on record as “about 40%”. Also, the “blood vessel contraction compared with porcine artery” value with human umbilical artery and in the data set with great cardiac vein was “Virtually Identical effect” each time. Also, the GTPase activity entry with G11 is given as “moderate inhibition”; with Gi, “small but significant activation”; with Gs, “seems not to be affected”; with Go it was “small but significant activation”.
